From patent US20250073248A1, “BIORESORBABLE CATIONIC STEROIDAL ANTIMICROBIAL COMPOUNDS WITH GLYCERIDE LINKAGES” (BRIGHAM YOUNG UNIVERSITY, priority 2023, published 2025)
Values after ≈ are worked out from the molar mass of the structure shown.

Key:
[1] = tested on: Pseudomonas aeruginosa 01 (PA01); assay: MIC and MBC, broth microdilution, PA01 (Table 1); type: cell-based; conditions: Pseudomonas aeruginosa
Text: To investigate the antimicrobial impact of structural variance in the novel bioresorbable CSA compounds disclosed herein,Pseudomonas aeruginosa 01 (PA01), methicillin-resistant Staphylococcus aureus (MRSA), and Candida albicans (CA) were selected, representing Gram-negative bacterial, Gram-positive bacterial, and fungal pathogens of high or critical priority on the world health organization's priority lists for bacteria and fungi. Earlier applications of CSA compounds have focused on preventing medical device infections, and all three strains are commonly found in colonized implants, making efficacy against these pathogens an important indicator of future applicability.
(§1) All compounds were screened against these pathogens to determine their minimum inhibitory concentration (MIC), minimum bactericidal concentration (MBC), and minimum fungicidal concentration (MFC) using a broth microdilution method. […] Of these three, only CSA-4110 was similarly active against PA01and CA, inhibiting growth at 8 μg/mL.

[2] = tested on: broader range of bacterial and fungal strains; assay: CSA-4110 against a broader range of bacterial and fungal strains (summary of Tables 2-4); type: cell-based
Description: as §1
(§2) CSA-4110 was evaluated further against a broader range of bacterial and fungal strains. Acinetobacter baumannii and several isolates of Staphylococcus aureus, Klebsiella pneumoniae, and Candida auris were selected, further broadening the coverage of high and critical priority pathogens. Streptococcus uberis, Staphylococcus pseudintermedius, Proteus mirabilis, and Escherichia coli were also screened to obtain a more complete efficacy profile. […] For comparison, previous work established the MICs of CSA-131 against strains of Staphylococcus aureus, Pseudomonas aeruginosa, and Candida albicans at 0.5-2 μg/mL

K. pneumoniae ARLG 1360 = assay: MIC/MBC of CSA-4110, Gram negative bacteria (Table 3); type: cell-based; conditions: Klebsiella pneumoniae, ARLG1360
Description: as §1, §2

P. aeruginosa ATCC 27853 = assay: as above; type: cell-based; conditions: Pseudomonas aeruginosa, ATCC27853
Description: as §1, §2

E. coli ATCC 25922 = assay: as above; type: cell-based; conditions: Escherichia coli, ATCC25922
Description: as §1, §2

A. baumannii ATCC 19606 = assay: as above; type: cell-based; conditions: Acinetobacter baumannii, ATCC19606
Description: as §1, §2

[3] = tested on: P. aeruginosa 01 ATCC 47085; assay: as above; type: cell-based; conditions: Pseudomonas aeruginosa, ATCC47085
Description: as §1, §2

K. pneumoniae ATCC 13883 = assay: as above; type: cell-based; conditions: Klebsiella pneumoniae, ATCC13883
Description: as §1, §2

[4] = tested on: K. pneumoniae ATCC BAA-1706; assay: as above; type: cell-based; conditions: Klebsiella pneumoniae, ATCCBAA1706
Description: as §1, §2

P. mirabilis ATCC 29906 = assay: as above; type: cell-based; conditions: Proteus mirabilis, ATCC29906
Description: as §1, §2
PM is a Gram-negative organism which is occasionally found in urinary tract infections in individuals with functional or anatomical anomalies. It is often noted for its ability to modulate its susceptibility to cationic biocides primarily through modifications to its efflux system and the structure of lipopolysaccharide, a negatively charged endotoxin located in the outer membrane. This can provide insight into the mechanism-of-action for CSA-4110. […]

[5] = tested on: Pseudomonas aeruginosa (Pa); assay: Example 1 MIC/MBC (FIG. 1, FIG. 2), Pa; type: cell-based
Description: The antimicrobial activities of CSA-4108, CSA-4110, CSA-4112, and CSA-4114 were determined relative to methicillin-resistant Staphylococcus aureus (MRSA), Pseudomonas aeruginosa (Pa), and Candida albicans 90028. The minimum inhibitory concentration (MIC) for CSA-4108, CSA-4110, CSA-4112, and CSA-4114 relative to the foregoing microbes is graphically reported in FIG. 1. The minimum bactericidal concentration (MBC) and minimum fungicidal concentration […] for CSA-4108, CSA-4110, CSA-4112, and CSA-4114 relative to the foregoing microbes are graphically reported in FIG. 2.

MRSA ATCC BAA-42 = assay: Membrane depolarization, DiSC2(5) fluorescence; type: cell-based, Staphylococcus aureus; conditions: 8 μg/mL, added at 140 seconds, FIG. 5
Description: Reference is made to FIGS. 4 and 5. […] CSA-131 or CSA-4110 was added at 140 second to achieve 8 μg/mL after addition.
Antimicrobial peptides (AMPs) and CSA compounds are known to permeabilize bacterial membranes. For bacterial survival, the cytoplasmic membrane must be polarized. Depolarization of this membrane prevents ATP synthesis and leads to cell death. The dye 3,3′-diethylthiadicarbocyanine iodide (DiSC2(5)) can be used to measure cell membrane polarization. Fluorescence of this dye is decreased when it inserts into polarized membranes, and membrane depolarization results in substantial increases in fluorescence (see FIG. 5).
MRSA was used to explore the impact of CSA-4110 on membrane depolarization and compared results to those with ceragenin CSA-131. […] Fluorescence was monitored over time after addition of CSA-4110 or CSA-131. which incorporated into cellular membranes.

[6] = Critical micelle concentration, orange OT dye solubilization; type: physicochemical; conditions: aqueous solution with orange OT dye, water; FIG. 4; read-out: critical micelle concentration (CMC), solubilization of orange OT
Description: Previous studies have shown membrane disruption and permeabilization to be the mechanism of action of other CSA compounds. The critical micelle concentration (CMC) of CSA-4110 was measured to determine if aggregation was necessary for antimicrobial activity (see FIG. 4). This assay involves using a hydrophobic dye (orange OT) that is insoluble in water to measure what concentration of CSA-4110 is required to solubilize orange OT. Entry of orange OT into solution is due to micelle formation by CSA-4110 and can be quantified with a spectrophotometer.

[7] = all strains of Tables 2-4 except Proteus mirabilis

Q: Which results are given for `CCCCCCCCCC(=O)OCC(O)COC(=O)CC[C@@H](C)[C@H]1CC[C@H]2[C@@H]3[C@H](OC(=O)CCN)C[C@@H]4C[C@H](OC(=O)CCN)CC[C@]4(C)[C@H]3C[C@H](OC(=O)CCN)[C@]12C` (stereo partly shown) [CSA-4110]?
A: MBC ([1]; MBC, value in parentheses): 32 µg/mL (≈ 37.6 µM); MIC ([1]; first value of cell): 8 µg/mL (≈ 9.41 µM); MBCs/MFCs, range over the strains [2, 7]: 2 to 16 µg/mL; MICs, range over the strains [2, 7]: 2 to 8 µg/mL; MICs, range as restated in the CMC paragraph ([2]; compared with CMC): 2 to 8 g/mL; MBC (K. pneumoniae ARLG 1360): 8 µg/mL; MIC (K. pneumoniae ARLG 1360): 8 µg/mL; MBC (P. aeruginosa ATCC 27853): 8 µg/mL; MIC (P. aeruginosa ATCC 27853): 4 µg/mL; MBC (E. coli ATCC 25922): 4 µg/mL; MIC (E. coli ATCC 25922): 4 µg/mL; MBC (A. baumannii ATCC 19606): 4 µg/mL; MIC (A. baumannii ATCC 19606): 4 µg/mL; MBC [3]: 8 µg/mL; MIC [3]: 4 µg/mL; MBC (K. pneumoniae ATCC 13883): 2 µg/mL; MIC (K. pneumoniae ATCC 13883): 2 µg/mL; MBC [4]: 4 µg/mL; MIC [4]: 4 µg/mL; MBC (P. mirabilis ATCC 29906): 64 µg/mL; MIC (P. mirabilis ATCC 29906): 16 µg/mL; MBC (FIG. 2), ranking in words ([5]; PA): lowest MBC and MFC; MIC (FIG. 1), ranking in words ([5]; Pa): lowest MIC; fluorescence of DiSC2(5) after addition (membrane depolarization) (MRSA ATCC BAA-42): rapid increase of fluorescence; critical micelle concentration [6]: ~1000 µg/mL
